This is an account of results in ChEMBL document CHEMBL5726238, “Phenyl and pyridinyl substituted piperidines and piperazines as inhibitors of IDH1 mutants and their use in treating cancer” (2017).

The term IC50 denotes the point on the concentration scale where inhibition reaches its midpoint.

The target of the assay is Isocitrate dehydrogenase [NADP] cytoplasmic (Homo sapiens, UniProt O75874, R132H). Description: Inhibition Assay: Assays were conducted in a volume of 76 μl assay buffer (150 mM NaCl, 10 mM MgCl2, 20 mM Tris pH 7.5, 0.03% bovine serum albumin) as follows in a standard 384-well plate: To 25 ul of substrate mix (8 uM NADPH, 2 mM aKG), 1 μl of test compound was added in DMSO. […] The reaction was incubated for 50 minutes at room temperature, then 25 μl of detection mix (30 μM resazurin, […]) was added and the mixture further incubated for 5 minutes at room temperature. A general note: The colour change of resazurin is a common sign of viable cells or microbes.
Isocitrate dehydrogenase [NADP] cytoplasmic, sequence (O75874 2-414 R132H limits assumed): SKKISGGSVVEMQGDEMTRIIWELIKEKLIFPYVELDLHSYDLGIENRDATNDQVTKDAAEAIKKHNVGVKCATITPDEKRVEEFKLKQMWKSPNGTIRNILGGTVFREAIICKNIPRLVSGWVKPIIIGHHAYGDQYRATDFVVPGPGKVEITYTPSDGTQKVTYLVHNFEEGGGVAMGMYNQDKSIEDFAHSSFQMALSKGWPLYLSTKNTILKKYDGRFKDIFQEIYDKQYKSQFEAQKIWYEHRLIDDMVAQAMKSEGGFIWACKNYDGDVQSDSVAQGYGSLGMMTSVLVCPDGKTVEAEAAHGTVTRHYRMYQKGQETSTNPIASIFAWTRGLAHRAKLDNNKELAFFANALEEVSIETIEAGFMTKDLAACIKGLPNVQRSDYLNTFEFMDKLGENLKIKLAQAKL

Where only a bound is given, the exact number is not on record here.

For `C=CC(=O)N1CCc2c(C3CC3)nc(N3CCN(C(=O)C4CC4)[C@H](C4CC4)C3)c(C#N)c2C1`, the IC50 is less than 500 nM.
The value for `CC(C)c1nc(N2CCN(C(=O)Cc3cccs3)CC2)c(C#N)c2c1COC(C)(C)C2` was 1000 to 10000 nM; that for `CC(C)[C@@H]1CN(c2nc(C3CC3)c3c(c2C#N)CC(C)(C)OC3)CCN1C(=O)CCC(=O)OCCO` was less than 500 nM.
For `C#CC(=O)N1CCc2c(C#N)c(N3CCN(C(=O)CCOC)[C@H](C4CC4)C3)nc(C3CC3)c2C1`, the IC50 is less than 500 nM.
Take `COCCC(=O)N1CCN(c2nc(C3CC3)c3c(c2C#N)CN(S(C)(=O)=O)CC3)C[C@H]1C1CC1`: the IC50 was less than 500 nM.
